According to PubChem BioAssay (NCI):
Several values for one entry are separate records, joined by “and”; a condition that tells them apart may be missing. Identical values can stand only once.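 Step 1: Grow cells in 96-well plates. Step 2: Expose to compound for 48 hours at 5 concentrations. Step 3: Interpolate endpoints linearly; if unreached, use highest concentration. Here, GI50 denotes the concentration required for 50% inhibition of growth. The concentration for full growth arrest is given as TGI.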

Assays:
Assay in all cases: NCI-60 cell line screen, 48 h
[1] = tested on: EKVX NSCLC
[2] = tested on: HOP-92 NSCLC
[3] = tested on: HS 578T breast
[4] = tested on: MALME-3M melanoma
[5] = tested on: MDA-MB-231 breast
[6] = tested on: NCI-H226 lung
[7] = tested on: NCI-H522 lung
[8] = tested on: OVCAR-8 ovarian
[9] = tested on: SK-MEL-28 melanoma
[10] = tested on: SK-MEL-5 melanoma

| SMILES | GI50 [1] | TGI [1] | GI50 [2] | TGI [2] | GI50 [3] | TGI [3] | GI50 [4] | TGI [4] | GI50 [5] | TGI [5] | GI50 [6] | TGI [6] | GI50 [7] | TGI [7] | GI50 [8] | TGI [8] | GI50 [9] | TGI [9] | GI50 [10] | TGI [10] |
| --- | --- | --- | --- | --- | --- | --- | --- | --- | --- | --- | --- | --- | --- | --- | --- | --- | --- | --- | --- | --- |
| Cn1cc(-c2nc(-c3c[nH]c4ncccc34)cs2)c2ccccc21 | 0.368 µM | 61.1 µM | 2.72 µM | 36.2 µM | > 100 µM | > 100 µM | 31.9 µM | > 100 µM | 1.03 µM | 63.8 µM | 14.2 µM | > 100 µM | 12.3 µM | > 100 µM | 38.2 µM | > 100 µM | 48.8 µM | > 100 µM | 0.595 µM | > 100 µM |
| O=Nc1c(-c2c(O)[nH]c3cc(Br)ccc23)[nH]c2ccccc12 | 1.3 µM | 3.22 µM | 1.97 µM | 7.29 µM | 0.239 µM | 7.14 µM | 2.35 µM | 6.44 µM | 1.82 µM | 5.31 µM | 0.932 µM | 3.49 µM | 1.1 µM | 4.54 µM | 2.32 µM | > 100 µM | 2.37 µM | 4.79 µM | 0.723 µM | 1.99 µM |
| COc1cc(/C=C/c2cc(/C=C/c3ccc(O)c(OC)c3)n(C(=O)Nc3ccccc3Cl)n2)ccc1O | 0.671 µM | 3.84 µM | 0.349 µM | 2.39 µM | 0.114 µM | 0.89 µM | 0.539 µM | 2.01 µM | 0.708 µM | 11.4 µM | 0.617 µM | 2.74 µM | 0.112 µM | 0.672 µM | 0.378 µM | 1.6 µM | 0.519 µM | 4.11 µM | 0.299 µM | 1.22 µM |
| O=c1cnnc(N/N=C/c2ccccc2O)[nH]1 |  |  | 4.75 µM | > 100 µM | 28.2 µM | > 100 µM | 0.426 µM | 47.5 µM | 4.37 µM | > 100 µM | 1.63 µM | 51.7 µM | 1.26 µM | > 30.5 µM | 1.81 µM | > 100 µM | 4.54 µM | 53.2 µM | 1.25 µM | > 39.6 µM |
| CC(C)(C)c1cc(NC(=O)Nc2ccc(-c3cn4c(n3)sc3cc(OCCN5CCOCC5)ccc34)cc2)no1 | 13 µM and 4.34 µM and > 10 µM | 34.9 µM and 21.6 µM and > 10 µM | 3.25 µM and 0.398 µM and 1.59 µM | 14.8 µM and 5.01 µM and > 10 µM | 1.35 µM and 0.328 µM and 1.75 µM | 25.3 µM and 2.92 µM and > 10 µM | 2.62 µM and 1.59 µM and 6.17 µM | 14.7 µM and 13.3 µM and > 10 µM | 6.34 µM and 2.36 µM and 7.92 µM | 21 µM and 16.3 µM and > 10 µM | 3.38 µM and 0.921 µM and 4.29 µM | 18.6 µM and 5.24 µM and > 10 µM | 0.9 µM and 0.937 µM and 3.32 µM | 15.5 µM and 13.5 µM and > 10 µM | 1.14 µM and 0.544 µM and 1.51 µM | 12.3 µM and 11.8 µM and > 10 µM | 4.23 µM and 2.04 µM and > 10 µM | 17.5 µM and 12 µM and > 10 µM | 3.81 µM and 0.985 µM and 1.97 µM | 18.2 µM and 3.31 µM and > 10 µM |
| COc1ccc(C(=NN=C(N)N)c2ccc(OC)cc2)cc1 | 4.68 µM | 24.7 µM | 1.9 µM | 7.45 µM | 1.75 µM | 6.93 µM | 2.85 µM | 11.6 µM | 3.88 µM | 17.1 µM | 4.37 µM | 18.3 µM | 2.9 µM | 13.4 µM | 5.29 µM | 21.1 µM | 5.7 µM | 19.1 µM | 2.25 µM | 5.76 µM |
| O=C(c1ccc(C(F)(F)F)c(Cl)c1)N(Cc1ccc(Cl)cc1)c1ccc(-c2cc(C(F)(F)F)[nH]n2)c(O)c1 | 1.3 µM | 4.57 µM | 0.629 µM | 2.14 µM | 1.05 µM | 3.03 µM | 0.941 µM | 2.36 µM | 0.964 µM | 2.21 µM | 1.08 µM | 2.94 µM | 0.893 µM | 3.31 µM | 1.2 µM | 3.91 µM | 1.43 µM | 5.16 µM | 0.816 µM | 1.55 µM |
| COc1ccc2c3c1OC1C(OC)(OC)C=C[C@@]4(Br)[C@@H](C2)N(CC2CC2)CC[C@]314 (some centres not stated) |  | > 100 µM |  | 83.9 µM |  | > 100 µM |  | > 100 µM |  | > 100 µM |  | > 100 µM |  | 47.8 µM |  | > 100 µM |  | > 100 µM |  | > 100 µM |
| COC1=C(C)C(=O)c2c(c(CCCl)c3n2CCC3OC(C)=O)C1=O (configuration not stated) | 2.09 µM | 7.3 µM | 4.48 µM | 24 µM | 0.417 µM | 3.62 µM | 0.188 µM | 0.414 µM | 17.5 µM | 61.7 µM | 0.246 µM | 1.03 µM | 0.192 µM | 0.85 µM | 0.897 µM | 19.4 µM | 0.31 µM | 1.09 µM | 0.0849 µM | 0.228 µM |
| COc1ccc(CCN(CC(=O)N(CC(N)=O)C2CCC[C@@H]2OCc2ccccc2)C(=O)CN(C(=O)CN(CCc2ccc(Cl)cc2)C(=O)CN(C(=O)CN(C)Cc2ccccc2F)[C@H](C)C2CCCCC2)[C@H](C)C2CCCCC2)cc1OC (some centres not stated) | 2.85 µM | > 50 µM | 1.3 µM | 31.3 µM | 7.26 µM | > 50 µM | 1.66 µM | 46.2 µM | 2.89 µM | > 50 µM | 1.86 µM | 41.7 µM | 1.52 µM | 32.2 µM | 2.82 µM | > 50 µM | 1.89 µM | > 50 µM | 1.7 µM | 8.62 µM |
| CCOC(=O)C1=C(C)NC(=O)NC1CN1C(=O)c2ccccc2C1=O (configuration not stated) | > 100 µM | > 100 µM | > 100 µM | > 100 µM | > 100 µM | > 100 µM | > 100 µM | > 100 µM | > 100 µM | > 100 µM |  |  | > 100 µM | > 100 µM | > 100 µM | > 100 µM | > 100 µM | > 100 µM | > 100 µM | > 100 µM |
| CC(=O)CC/C=C(\C)[C@H](O)[C@H](C)C(=O)O[C@H]1C[C@H](C)C=C2C=C[C@@]3(C)O[C@@H](O)CC(=O)[C@]3(C)[C@H]21 | 0.877 µM | 4.64 µM | 1.53 µM | 7.06 µM | 0.492 µM | 4.48 µM | 0.588 µM | 2.7 µM | 0.558 µM | 3.07 µM | 0.423 µM | 4.6 µM | 0.566 µM | 4.19 µM | 0.425 µM | 6 µM | 0.364 µM | 2.18 µM | 0.598 µM | 2.08 µM |
| Oc1ccc2ccccc2c1N=Nc1cc(Cl)ccc1Cl |  | 20.6 µM |  | > 50 µM |  | 21.4 µM |  | > 50 µM |  | 27.9 µM |  | > 50 µM |  | > 50 µM |  | 30.2 µM |  | > 50 µM |  | > 50 µM |
| CN(C)CCCSc1ccccc1NC1=C(Cl)C(=O)C(Nc2ccccc2SCCCN(C)C)=C(Cl)C1=O | 1.81 µM | 3.38 µM | 1.48 µM | 3.06 µM | 3.14 µM | 21.4 µM | 1.85 µM | 3.6 µM | 1.78 µM | 3.38 µM | 2.21 µM | 4.32 µM | 1.07 µM | 2.89 µM | 2.03 µM | 3.99 µM | 1.67 µM | 3.12 µM | 1.83 µM | 3.55 µM |
| COc1ccc(/C=C2\COc3ccc(O)c(O)c3C2=O)c(OC)c1OC | 3.65 µM | 25.8 µM | 2.97 µM | 9.91 µM | 4.22 µM | > 100 µM | 1.77 µM | 4.34 µM | 2.22 µM | 7.43 µM | 2.66 µM | 7.25 µM | 0.933 µM | 3.22 µM | 3.16 µM | > 100 µM | 2.63 µM | 7.37 µM | 2.25 µM | 5.33 µM |
| CC1(C)N=C(N)N=C(N)N1c1ccc(Cl)cc1 | 0.763 µM | > 100 µM | > 100 µM | > 100 µM | > 100 µM | > 100 µM | 16.1 µM | > 100 µM | > 100 µM | > 100 µM | > 100 µM | > 100 µM | 14.6 µM | > 100 µM | 2.17 µM | > 100 µM | 53.5 µM | > 100 µM | 3.99 µM | > 100 µM |
| CC(C)[C@@](O)(c1ccc2cc(OC(F)F)c(OC(F)F)cc2c1)c1cn[nH]n1 | 11 µM | 29.9 µM | 13.8 µM | 30.2 µM | 21.1 µM | 73.7 µM | 16.8 µM | 39.2 µM | 18.5 µM | 39.1 µM | 22.3 µM | 58.2 µM | 14.3 µM | 32.3 µM | 21.9 µM | 53.6 µM | 17.1 µM | 33.9 µM | 14.4 µM | 27.5 µM |
| O=C(C=P(c1ccccc1)(c1ccccc1)c1ccccc1)CCl |  |  | 0.142 µM | 0.693 µM | 1.53 µM | 11 µM | 1.32 µM | 3.08 µM | 1.22 µM | 3.03 µM | 1.31 µM | 2.97 µM | 0.396 µM | 1.64 µM | 0.918 µM | 3.8 µM | 1.54 µM | 3.55 µM | 1.45 µM | 2.83 µM |
| Cn1cc(C2=C(c3cn(-c4ccccc4)c4ccccc34)C(=O)NC2=O)c2ccccc21 |  |  | > 25 µM | > 25 µM | > 14.6 µM | > 25 µM | 14.9 µM | > 25 µM | > 23.3 µM | > 25 µM | > 25 µM | > 25 µM | 6.61 µM | > 25 µM | 19.5 µM | > 25 µM | 22.3 µM | > 25 µM | 10.8 µM | > 25 µM |
